Measurements taken from patent publication US6566541B2, “Type 2 methionine aminopeptidase (MetAP2) inhibitors and uses thereof” (Massachusetts Institute of Technology, priority 1997, dated 2003).
Read-outs that look alike come from different tables or passages of the source.

Experiments:
[1] = system: map1 null [XLP101 (map1::HIS3)] yeast cells; experiment: yeast growth on YEPD plates containing drug, map1 null; assay type: cell-based, Saccharomyces cerevisiae; details: 50 nM drug, YEPD plate, 30° C., four days
Description: (§1) […]. […] […].

[2] = system: bovine aortic endothelial cell (BAEC); experiment: bovine aortic endothelial cell (BAEC) proliferation assay (MTT); assay type: cell-based; details: for IC50: Bos taurus; for activity in the BAEC proliferation assay: result in words
Protocol: BAEC were trypsinized and plated into 96-well plates at a density of 2000 cells per well. After the cells adhered to the plate, compounds dissolved in ethanol (final concentration of 0.5%) were added to the cultures.
(§2) Synthesis was according to the procedures as described in Mauri et al., Chem. Pharm. Bull. […] Bull.

[3] = target: p67 (MetAP2) (Mus musculus, UniProt O08663)
[4] = target: T1, recombinant human MetAP2 (Homo sapiens, UniProt P50579); experiment: methionine aminopeptidase activity of MetAP2 (Met-Gly-Met-Met substrate); assay type: biochemical
T1 construct: made in house; host or cells: insect cells
Protocol: Recombinant human MetAP2 was expressed and purified from insect cells as described in Li and Chang, Biochem. Biophys. Res. Commun. […] Released methionine was quantified at different time points (0, 2, 3 and 5 min) using the method of Zuo et al., Mol. Gen.
as §2

[5] = target: T2, 67 kD (p67) (Bos taurus, UniProt Q3ZC89); experiment: competition of ovalicin photoaffinity labeling in BAEC extracts; assay type: binding, bovine; details: BAEC extract preincubated with excess cold competitor
T2 construct: endogenous in cells; host or cells: BAEC (bovine aortic endothelial cells) extract
Protocol: Photoaffinity labeling was performed as follows. […] Reaction mixtures were incubated on ice in the dark for 1 hr and then irradiated at 254 nm (0.2 J/cm^2). Reactions were quenched by adding 1.5 μl β-mercaptoethanol followed by 7.5 μl 5×SDS sample buffer and heated in a boiling water bath for 3 min. Samples were analyzed by 10% SDS/PAGE, followed by autoradiography.

[6] = system: map2 null [XLP201 (map2::URA3)] yeast cells; details: 50 nM drug, YEPD plate, 30° C., four days
Protocol: To further test the specificity of these drugs, both wild type and mutant yeast strains lacking either MetAP1 (map1) or MetAP2 (map2) were plated onto media containing the two drugs. […] The plates were incubated at 30° C. for four days.

[7] = target: T3, recombinant yeast MetAP1 (Saccharomyces cerevisiae, UniProt Q01662); experiment: MetAP activity of recombinant yeast MetAP1 in vitro; assay type: biochemical; details: concentrations up to 10 μM
T3 sequence (Q01662 1-387): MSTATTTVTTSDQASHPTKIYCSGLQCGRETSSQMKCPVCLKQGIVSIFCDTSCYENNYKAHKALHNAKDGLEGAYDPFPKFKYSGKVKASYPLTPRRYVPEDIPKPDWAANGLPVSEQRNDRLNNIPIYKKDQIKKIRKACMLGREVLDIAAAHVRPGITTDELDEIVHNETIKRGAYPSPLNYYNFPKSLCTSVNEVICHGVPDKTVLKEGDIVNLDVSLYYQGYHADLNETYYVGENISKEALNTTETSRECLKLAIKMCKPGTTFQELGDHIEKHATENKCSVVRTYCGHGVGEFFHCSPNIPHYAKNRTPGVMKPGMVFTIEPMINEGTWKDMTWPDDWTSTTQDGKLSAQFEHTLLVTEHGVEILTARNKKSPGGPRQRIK

[8] = system: Wild-type [YPH500] yeast cells; experiment: yeast growth on YEPD plates containing drug, wild type; assay type: cell-based, Saccharomyces cerevisiae; details: 50 nM drug, YEPD plate, 30° C., four days
Description: as §1

[9] = target: T1, recombinant human MetAP2; experiment: MetAP2 inhibition of eIF-2α phosphorylation by heme-regulated inhibitor kinase (HRI); assay type: biochemical; details: compared with unbound MetAP2
Protocol: Modified or control MetAP2 (0.6 μg) was incubated with purified eIF-2 (0.3 μg) in 20 mM Tris·HCl, pH 7.8, 40 mM KCl, and 2 mM MgAC2 on ice for 1 hr. Recombinant HRI (0.25 ng) and [γ-^32P]ATP were then added to a final total volume of 20 μl and the reaction mixture was further incubated at 37° C. for 10 min. The labeled eIF-2α was analyzed by 10% SDS-PAGE followed by autoradiography. The phosphorylated bands were quantified by NIH Image 1.60 software.

[10] = target: recombinant yeast MetAP2 (Saccharomyces cerevisiae, UniProt P38174); experiment: MetAP activity of recombinant yeast MetAP2 in vitro; assay type: biochemical; details: concentrations as low as 5 nM
[11] = target: T1, recombinant human MetAP2; experiment: covalent binding to MetAP2 (biotin conjugates, denaturing SDS-PAGE, streptavidin-HRP); details: drug-protein complex maintained under denaturing conditions
Protocol: The protein samples were boiled in a sample buffer containing SDS and β-mercaptoethanol, subjected to SDS-PAGE, and transferred to nitrocellulose.
100 ng of recombinant human MetAP2 was incubated in 40 μl binding buffer (20 mM Tris·HCl, pH 7.1, 100 mM KCl, 0.2% Triton X-100) in the presence or absence of competitors for 1 hr followed by incubation with the biotin conjugates (1 μM) at 4° C. for 2 hr. 40 μl of 2×SDS sample buffer containing β-mercaptoethanol was added and the samples were boiled for 10 min. Following SDS-PAGE, the samples were transferred to nitrocellulose at 50V for 1 hr at 4° C. and blocked overnight in blocking solution (5% BSA, 2% Nonfat milk, 0.02% NaN3 in PBS). The membrane was incubated with rabbit anti-human MetAP2 antibodies (1:500) for 1 hr at room temperature, followed by incubation with sheep anti-rabbit IgG-HRP or incubated with streptavidin-HRP (1:1000) for 1 hr and visualized with the chemilluminescent ECL kit (Amersham, Arlington Heights, Ill.), as per manufacturer's instructions.

[12] = BAEC proliferation, average of at least three experiments, read-out: Proliferation IC50
[13] = MetAP2 IC50 (nM), MetAP2 enzymatic activity, average of at least three experiments
[14] = BAEC, read-out: Proliferation IC50 (nM)
[15] = MetAP2 enzymatic activity, average of at least three experiments, read-out: MetAP2 IC50

Sequence of p67 (MetAP2) (O08663 whole entry): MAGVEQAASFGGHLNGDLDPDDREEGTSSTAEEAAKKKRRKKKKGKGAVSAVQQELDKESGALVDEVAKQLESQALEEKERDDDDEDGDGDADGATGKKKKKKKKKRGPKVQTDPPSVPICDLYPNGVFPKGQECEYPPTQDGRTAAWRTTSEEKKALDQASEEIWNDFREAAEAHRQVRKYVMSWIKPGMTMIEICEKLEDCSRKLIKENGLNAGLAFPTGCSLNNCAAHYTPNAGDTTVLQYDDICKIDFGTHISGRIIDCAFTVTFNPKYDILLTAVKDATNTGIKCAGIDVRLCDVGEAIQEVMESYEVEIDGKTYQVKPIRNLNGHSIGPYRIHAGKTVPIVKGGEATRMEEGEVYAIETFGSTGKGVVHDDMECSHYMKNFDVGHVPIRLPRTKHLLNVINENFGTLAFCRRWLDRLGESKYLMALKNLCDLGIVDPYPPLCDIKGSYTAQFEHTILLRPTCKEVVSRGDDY
T1 sequence (P50579 whole entry): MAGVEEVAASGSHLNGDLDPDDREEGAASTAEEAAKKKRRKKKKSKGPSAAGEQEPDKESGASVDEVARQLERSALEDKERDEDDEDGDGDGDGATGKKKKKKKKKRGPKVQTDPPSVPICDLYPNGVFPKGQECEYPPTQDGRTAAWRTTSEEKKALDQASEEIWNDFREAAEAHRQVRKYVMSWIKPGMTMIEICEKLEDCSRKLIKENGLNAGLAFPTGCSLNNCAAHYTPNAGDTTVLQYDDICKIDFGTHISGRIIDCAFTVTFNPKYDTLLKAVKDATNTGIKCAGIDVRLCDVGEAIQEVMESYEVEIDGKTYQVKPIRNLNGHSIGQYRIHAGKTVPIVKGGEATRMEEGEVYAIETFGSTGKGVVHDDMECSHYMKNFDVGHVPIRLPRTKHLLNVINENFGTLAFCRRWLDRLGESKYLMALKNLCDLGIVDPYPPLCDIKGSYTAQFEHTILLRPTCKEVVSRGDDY
Sequence of recombinant yeast MetAP2 (P38174 whole entry): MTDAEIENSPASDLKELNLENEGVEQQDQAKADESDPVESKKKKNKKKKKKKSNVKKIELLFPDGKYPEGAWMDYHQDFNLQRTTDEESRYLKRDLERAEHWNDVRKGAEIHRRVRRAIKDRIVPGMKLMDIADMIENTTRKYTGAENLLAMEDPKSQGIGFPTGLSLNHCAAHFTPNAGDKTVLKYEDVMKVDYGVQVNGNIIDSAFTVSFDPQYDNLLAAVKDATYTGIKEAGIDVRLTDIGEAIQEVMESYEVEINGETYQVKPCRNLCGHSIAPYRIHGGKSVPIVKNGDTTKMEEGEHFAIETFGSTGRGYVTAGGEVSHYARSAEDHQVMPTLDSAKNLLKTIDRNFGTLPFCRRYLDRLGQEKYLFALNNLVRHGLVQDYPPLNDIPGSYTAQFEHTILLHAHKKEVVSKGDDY
T2 sequence (Q3ZC89 whole entry): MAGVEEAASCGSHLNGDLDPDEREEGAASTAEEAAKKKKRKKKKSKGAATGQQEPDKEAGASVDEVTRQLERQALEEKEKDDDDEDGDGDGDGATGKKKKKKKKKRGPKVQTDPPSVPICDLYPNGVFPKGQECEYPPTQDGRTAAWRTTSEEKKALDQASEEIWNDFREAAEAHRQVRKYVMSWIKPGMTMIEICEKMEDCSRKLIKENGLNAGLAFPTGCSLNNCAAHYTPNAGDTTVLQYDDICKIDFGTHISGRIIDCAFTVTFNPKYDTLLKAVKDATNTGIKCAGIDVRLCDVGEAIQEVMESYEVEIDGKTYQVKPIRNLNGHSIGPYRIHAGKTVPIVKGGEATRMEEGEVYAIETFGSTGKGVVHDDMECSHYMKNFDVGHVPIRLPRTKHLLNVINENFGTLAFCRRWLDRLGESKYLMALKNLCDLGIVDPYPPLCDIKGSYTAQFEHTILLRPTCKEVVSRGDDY

SMILES: CO[C@@H]1[C@H](OC(=O)NC(=O)CCl)CC[C@]2(CO2)[C@H]1[C@@]1(C)O[C@@H]1CC=C(C)C [AGM-1470]
- growth of the map1 mutant [1]: completely inhibited
- IC50 [2, 12]: 0.037 ± 0.0024 nM
- competition of band reacting with anti-human MetAP2 antibodies ([3]; Western blot of protein retained by biotin-fumagillin and biotin-ovalicin conjugates): elimination of the cross-reacting band
- p67 retention by biotin-ovalicin conjugate on immobilized streptavidin ([3]; mouse embryo extract, 50 μM competitor): sensitive
- competition of p67 binding by biotin-fumagillin ([3]; mouse embryo extract, 50 μM competitor, silver stain): competed
- IC50 ([4]; IC50, methionine aminopeptidase activity of MetAP2, estimated, 1 nM of recombinant human MetAP2 used in the assay): ~1 nM
- IC50 [4, 13]: 1 ± 0.3 nM
- effect on p67 labeling by ovalicin photoaffinity probe [5]: abrogated p67 labeling
- growth of map2 mutant yeast [6]: resistant
- inhibition of MetAP activity of the type 1 enzyme [7]: No inhibition
- growth of wild type yeast [8]: resistant
- MetAP2 bound by drug: inhibiting phosphorylation of eIF-2α by HRI [9]: as effective as unbound MetAP2
- inhibition of the yeast MetAP2 enzyme [10]: completely inhibited
- mode of binding to MetAP2 [11]: bound to MetAP2 covalently

SMILES: CO[C@@H]1[C@H](O)CC[C@]2(CO2)[C@@]1(O)[C@@]1(C)O[C@@H]1CC=C(C)C [FOS-34, (3S,4R,5R,6R)-4-[(1′S,2′S)-1′,2′-Epoxy-1′,5′-dimethyl-4′-hexenyl]-5-methoxy-1-oxaspiror[2.5]octane-4,6-diol]
- IC50 [2, 14]: 2.2 ± 1.4 nM
- IC50 [4, 13]: 4 ± 1 nM

SMILES: COC1C(OC(=O)NC(=O)CCl)CCC(O)(CSC)C1(O)C1(C)OC1CC=C(C)C [FOS-67, (1R,2S,3R,4R)-1-Methylthiomethylene-2-[(1′S,2′S)-1′,2′-epoxy-1′,5′-dimethyl-4′-hexenyl]-3-methoxy-4-O-(N-chloroacetyl)carbamoyl-cyclohexane-1,2,4-triol]
- IC50 [2, 12]: 40 ± 4 nM
- IC50 [4, 15]: 400 ± 200 nM

SMILES: CO[C@@H]1[C@H](OC(=O)NC(=O)CCl)CC[C@]2(CO2)[C@@]1(O)[C@@]1(C)O[C@@H]1CC=C(C)C [FOS-68, (3S,4R,5R,6R)-4-[(1′S,2′S)-1′,2′-Epoxy-1′,5′-dimethyl-4′-hexenyl]-5-methoxy-6-O(N-chloro-acetyl)carbamoyl-1-oxaspiror[2.5]octane-4,6-diol]
- IC50 [2, 12]: 0.46 ± 0.26 nM
- IC50 [4, 15]: 2 ± 0.8 nM

SMILES: CO[C@@H]1[C@H](OC(=O)CCCCl)CC[C@]2(CO2)[C@@]1(O)[C@@]1(C)O[C@@H]1CC=C(C)C [FOS-69, (3S,4R,5R,6R)-4-[(1′S,2′S)-1′,2′-Epoxy-1′5′-dimethyl-4′-hexenyl]-5-methoxy-6-O(4″chlorobutyryl)-1-oxaspiror[2.5]octane-4,6-diol]
- IC50 [2, 12]: 0.31 ± 0.066 nM
- IC50 [4, 13]: 0.1 ± 0.03 nM

SMILES: CO[C@@H]1C(=O)CC[C@]2(CO2)[C@H]1[C@@]1(C)O[C@@H]1CC=C(C)C [FOS-72, (3R,4S,5S)-4-[(1′R,2′S)-1′,2′-Epoxy-1′,5′-dimethyl-4′-hexenyl]-5-methoxy-1-oxaspiror[2.5]octan-6-one]
- IC50 [2, 14]: 0.013 ± 0.0015 nM
- IC50 [4, 15]: 6 ± 2 nM

SMILES: COC1C(O)CCC(O)(CSC)C1(O)C1(C)OC1CC=C(C)C [FOS-201, (1R,2S,3R,4R)-1-Methylthiomethylene-2-[(1′S,2′S)-1′,2′-epoxy-1′,5′-dimethyl-4′hexenyl]-3-methoxycyclohexane-1,2,4-triol]
- IC50 [2, 12]: 56 ± 34 nM
- IC50 [4, 15]: 45 ± 12 nM

SMILES: CO[C@@H]1C(=O)CC[C@]2(CO2)[C@@]1(O)[C@@]1(C)O[C@@H]1CC=C(C)C [Ovalicin]
- growth of the map1 mutant [1]: completely inhibited
- inhibition of MetAP activity of the type 1 enzyme [7]: No inhibition
- growth of wild type yeast [8]: resistant
- inhibition of the yeast MetAP2 enzyme [10]: completely inhibited

SMILES: COC1C(OC(=O)NCCCCCCCCNC(=O)CCCCC2SCC3NC(=O)NC32)CCC2(CO2)C1C1(C)OC1CC=C(C)C (centres unmarked) [biotin-fumagillin]
- activity in the BAEC proliferation assay [2]: retain significant activity

SMILES: CO[C@@H]1[C@H](OC(=O)NCCNC(=O)CCc2ccc(O)cc2)CC[C@]2(CO2)[C@@]1(O)C1(C)O[C@@H]1CC=C(C)C (some centres unmarked) [photoaffinity label mimic]
- activity in the BAEC proliferation assay [2]: retained significant, albeit decreased, activity
